Source: patent US20260159527A1, “MACROCYCLIC BCL6 DEGRADERS” (DANA-FARBER CANCER INSTITUTE, INC., priority 2022, published 2026)

What follows are molecules tested against T1, BCL6 (Homo sapiens, UniProt P41182) (assay: HiBiT cellular degradation assay (Promega) in Su-DHL-4 cells). Conditions: concentration to reach 50% degradation; endogenous BCL6 tagged with SmBiT in Su-DHL-4 cells; 24 hr of compound treatment; relative to DMSO control.
T1 construct: Endogenous BCL6 was tagged with the 11-amino acid SmBiT through CRISPR/Cas9 gene editing; endogenous in cells; host or cells: Su-DHL-4 cells, CRISPR/Cas9 knock-in single cell clone
Type: cell-based
Experimental: DC50 (concentration to reach 50% degradation) values were determined from a cellular degradation assay (HiBiT, Promega™) in Su-DHL-4 cells (Table 1). Endogenous BCL6 was tagged with the 11-amino acid SmBiT through CRISPR/Cas9 gene editing and single cell clone selection. After 24 hr of compound treatment, cells were lysed and incubated with LgBiT protein to reconstitute intact nanoluciferase. Substrate was then added and relative luciferase units were measured. Degradation levels for each treatment were taken as a percentage compared to the control, 100% DMSO (Prism).

DC50	SMILES
0.0019 µM	CNC(=O)COc1cc2cc3cc(c2n(C)c1=O)OCCCC1CN(CC(C)C1(F)F)c1ncc(Cl)c(n1)N3 (stereo not drawn) [Compound 1]
0.00034 µM	CNC(=O)COc1cc2cc3cc(c2n(C)c1=O)OCCOC1CC(C)CN(C1)c1ncc(Cl)c(n1)N3 (stereo not drawn) [Compound 2]
0.00036 µM	CNC(=O)COc1cc2cc3cc(c2n(C)c1=O)OCCNC1CN(CC(C)C1(F)F)c1ncc(Cl)c(n1)N3 (stereo not drawn) [Compound 3]
0.121 µM	CNC(=O)COc1cc2cc3cc(c2n(C)c1=O)OCCO[C@H]1C[C@@H](C)CN(C1)c1ncc(Cl)c(n1)N3 [Compound 7, 2-(((1^3S, 1^5R)-2^5-chloro-1^5,4^1-dimethyl-4^2-oxo-4^1,4^2-dihydro-5,8-dioxa-3-aza-4(6,8)-quinolina-2(2,4)-pyrimidina-1 (1,3)-piperidinacyclooctaphane-4^3-yl)oxy)-N-methylacetamide]
> 0.4 µM	C[C@H]1CN2C[C@@H](CCCOc3cc(cc4c3n(C)c(=O)n4CCC(C)(C)O)Nc3nc2ncc3Cl)C1(F)F [Compound 11, (1^3R, 1^5S)-2^5-Chloro-1^4, 1^4-difluoro-4^1-(3-hydroxy-3-methylbutyl)-1^5,4^3-dimethyl-4^2,4^3-dihydro-4^1H-5-oxa-3-aza-4(6,4)-benzo[d]imidazola-2(2,4)-pyrimidina-1 (1,3)-piperidinacyclooctaphan-4^2-one]
0.0029 µM	C[C@@H]1CN2C[C@H](NCCOc3cc(cc4c3n(C)c(=O)n4CCC(C)(C)O)Nc3nc2ncc3Cl)C1(F)F [Compound 14, (1^3S,1^5R)-2^5-chloro-1^4,1^4-difluoro-4^1-(3-hydroxy-3-methylbutyl)-1^5,4^3-dimethyl-4^2,4^3-dihydro-41 H-5-oxa-3,8-diaza-4(6,4)-benzo[d]imidazola-2(2,4)-pyrimidina-1 (1,3)-piperidinacyclooctaphan-4^2-one]
0.082 µM	C[C@H]1CN2C[C@@H](NCCOc3cc(cc4c3n(C)c(=O)n4CCC(C)(C)O)Nc3nc2ncc3Cl)C1(F)F [Compound 15, (1^3R, 1^5S)-2^5-chloro-1^4,1^4-difluoro-4^1-(3-hydroxy-3-methylbutyl)-1^5,4^3-dimethyl-4^2,4^3-dihydro-41 H-5-oxa-3,8-diaza-4(6,4)-benzo[d]imidazola-2(2,4)-pyrimidina-1 (1,3)-piperidinacyclooctaphan-4^2-one]
0.0024 µM	C[C@H]1C[C@@H]2CN(C1)c1ncc(Cl)c(n1)Nc1cc(c3c(c1)n(CCC(C)(C)O)c(=O)n3C)OCCN2 [Compound 16, (1^3R, 1^5S)-2^5-Chloro-4^1-(3-hydroxy-3-methylbutyl)-1^5,4^3-dimethyl-4^2,4^3-dihydro-41 H-5-oxa-3,8-diaza-4(6,4)-benzo[d]imidazola-2(2,4)-pyrimidina-1 (1,3)-piperidinacyclooctaphan-4^2-one]
0.0044 µM	C[C@@H]1CN2C[C@H](CCCOc3cc(cc4c3n(C)c(=O)c(=O)n4C[C@H]3C[C@@H](O)C3)Nc3nc2ncc3Cl)C1(F)F [Compound 18-2]
> 0.4 µM	C[C@H]1CN2C[C@@H](CCCOc3cc(cc4c3n(C)c(=O)n4C)Nc3nc2ncc3Cl)C1(F)F [Compound 30, (1^3R155)-2^5-chloro-1^4,1^4-difluoro-1^5,4^14^3-trimethyl-4^2,4^3-dihydro-4^1H-5-oxa-3-aza-4(6,4)-benzo[d]imidazola-2(2,4)-pyrimidina-1 (1,3)-piperidinacyclooctaphan-4^2-one]
0.0075 µM	C[C@@H]1CN2C[C@H](NCCOc3cc(cc4[nH]c(=O)n(C)c34)Nc3nc2ncc3Cl)C1(F)F [Compound 31, (1^3S,1^5R)-2^5-chloro-1^4,1^4-difluoro-1^5,4^3-dimethyl-4^2,4^3-dihydro-4^1H-5-oxa-3,8-diaza-4(6,4)-benzo[d]imidazola-2(2,4)-pyrimidina-1 (1,3)-piperidinacyclooctaphan-4^2-one]

More lines, now with the values behind:

SMILES	DC50
CNC(=O)COc1cc2cc3cc(c2n(C)c1=O)OCCC[C@@H]1CN(C[C@H](C)C1(F)F)c1ncc(Cl)c(n1)N3 [Compound 5, 2-(((1^3R, 1^5S)-2^5-Chloro-1^4, 1^4-difluoro-1^5,4^1-dimethyl-4^2-oxo-4^1,4^2-dihydro-5-oxa-3-aza-4(6,8)-quinolina-2(2,4)-pyrimidina-1 (1,3)-piperidinacyclooctaphane-4^3-yl)oxy)-N-methylacetamide]	0.15 µM
C[C@@H]1CN2C[C@H](CCCOc3cc(cc4c3n(C)c(=O)n4CCC(C)(C)O)Nc3nc2ncc3Cl)C1(F)F [Compound 10, (1^3S,1^5R)-2^5-chloro-1^4,1^4-difluoro-4^1-(3-hydroxy-3-methylbutyl)-1^5,4^3-dimethyl-4^2, 4^3-dihydro-4^1H-5-oxa-3-aza-4(6,4)-benzo[d]imidazola-2(2,4)-pyrimidina-1 (1,3)-piperidinacyclooctaphan-4^2-one]	0.011 µM
C[C@H]1C[C@@H]2CN(C1)c1ncc(Cl)c(n1)Nc1cc(c3c(c1)n(CCC(C)(C)O)c(=O)n3C)OCCO2 [Compound 12, (1^3R, 1^5S)-2^5-chloro-4^1-(3-hydroxy-3-methylbutyl)-1^5,4^3-dimethyl-4^2,4^3-dihydro-4^1H-5,8-dioxa-3-aza-4(6,4)-benzo[d]imidazola-2(2,4)-pyrimidina-1 (1,3)-piperidinacyclooctaphan-4^2-one]	0.002 µM
C[C@@H]1C[C@H]2CN(C1)c1ncc(Cl)c(n1)Nc1cc(c3c(c1)n(CCC(C)(C)O)c(=O)n3C)OCCO2 [Compound 13, (1^3S,1^5R)-2^5-chloro-4^1-(3-hydroxy-3-methylbutyl)-1^5,4^3-dimethyl-4^2,4^3-dihydro-4^1H-5,8-dioxa-3-aza-4(6,4)-benzo[d]imidazola-2(2,4)-pyrimidina-1 (1,3)-piperidinacyclooctaphan-4^2-one]	> 0.4 µM
C[C@@H]1C[C@H]2CN(C1)c1ncc(Cl)c(n1)Nc1cc(c3c(c1)n(CCC(C)(C)O)c(=O)n3C)OCCN2 [Compound 17, (1^3S,1^5R)-2^5-Chloro-4^1-(3-hydroxy-3-methylbutyl)-1^5,4^3-dimethyl-4^2,4^3-dihydro-41 H-5-oxa-3,8-diaza-4(6,4)-benzo[d]imidazola-2(2,4)-pyrimidina-1 (1,3)-piperidinacyclooctaphan-4^2-one]	0.033 µM
C[C@@H]1CN2C[C@H](CCCOc3cc(cc4c3n(C)c(=O)c(=O)n4C[C@H]3C[C@H](O)C3)Nc3nc2ncc3Cl)C1(F)F [Compound 18-1, (1^3S,1^5R)-2^5-Chloro-1^4,1^4-difluoro-4^1-(((1r,3S)-3-hydroxycyclobutyl)methyl)-1^5,4^4-dimethyl-4^1,4^2,4^3,4^4-tetrahydro-5-oxa-3-aza-4(7,5)-quinoxalina-2(2,4)-pyrimidina-1 (1,3)-piperidinacyclooctaphane-4^2,4^3-dione]	0.031 µM
C[C@H]1CN2C[C@@H](CCCOc3cc(cc4c3n(C)c(=O)c(=O)n4C[C@H]3C[C@H](O)C3)Nc3nc2ncc3Cl)C1(F)F [Compound 19-1, (1^3R, 1^5S)-2^5-Chloro-1^4, 1^4-difluoro-4^1-(((1r, 3R)-3-hydroxycyclobutyl)methyl)-1^5, 4^4-dimethyl-4^1,4^2,4^3,4^4-tetrahydro-5-oxa-3-aza-4(7,5)-quinoxalina-2(2,4)-pyrimidina-1 (1,3)-piperidinacyclooctaphane-4^2,4^3-dione]	> 0.4 µM
C[C@H]1CN2C[C@@H](CCCOc3cc(cc4c3n(C)c(=O)c(=O)n4C[C@H]3C[C@@H](O)C3)Nc3nc2ncc3Cl)C1(F)F [Compound 19-2, (1^3R, 1^5S)-2^5-chloro-1^4,1^4-difluoro-4^1-(((1s,3S)-3-hydroxycyclobutyl)methyl)-1^2,4^4-dimethyl-4^2,4^2,4^3,4^4-tetrahydro-5-oxa-3-aza-4(7,5)-quinoxalina-2(2,4)-pyrimidina-1 (1,3)-piperidinacyclooctaphane-4^2,4^3-dione]	> 0.4 µM
C[C@@H]1CN2C[C@H](CCCOc3cc(cc4[nH]c(=O)c(=O)n(C)c34)Nc3nc2ncc3Cl)C1(F)F [Compound 28, (1^3S,1^3R)-2^5-Chloro-1^4,1^4-difluoro-1^5,4^4-dimethyl-41, 42, 43,44-tetrahydro-5-oxa-3-aza-4(7,5)-quinoxalina-2(2,4)-pyrimidina-1 (1,3)-piperidinacyclooctaphane-4^2,4^3-dione]	0.022 µM
C[C@@H]1CN2C[C@H](CCCOc3cc(cc4c3n(C)c(=O)n4C)Nc3nc2ncc3Cl)C1(F)F [Compound 29, (1^3S,1^5R)-2^5-chloro-1^4,1^4-difluoro-1^5,4^14^3-trimethyl-4^2,4^3-dihydro-4^1H-5-oxa-3-aza-4(6,4)-benzo[d]imidazola-2(2,4)-pyrimidina-1 (1,3)-piperidinacyclooctaphan-4^2-one]	0.076 µM
C[C@H]1CN2C[C@@H](NCCOc3cc(cc4[nH]c(=O)n(C)c34)Nc3nc2ncc3Cl)C1(F)F [Compound 32, (1^3R, 1^5S)-2^5-chloro-1^4,1^4-difluoro-1^5,4^3-dimethyl-4^2,4^3-dihydro-4^1H-5-oxa-3,8-diaza-4(6,4)-benzo[d]imidazola-2(2,4)-pyrimidina-1 (1,3)-piperidinacyclooctaphan-4^2-one]	> 0.4 µM
C[C@@H]1CN2C[C@H](OCCOc3cc(cc4c3n(C)c(=O)n4CCC(C)(C)O)Nc3nc2ncc3Cl)C1(F)F [Compound 33, (1^3S,1^5R)-2^5-Chloro-1^4, 1^4-difluoro-4^1-(3-hydroxy-3-methylbutyl)-1^5,4^3-dimethyl-4^2,4^3-dihydro-4^1H-5,8-dioxa-3-aza-4(6,4)-benzo[d]imidazola-2(2,4)-pyrimidina-1 (1,3)-piperidinacyclooctaphan-4^2-one]	0.0019 µM
C[C@H]1CN2C[C@@H](OCCOc3cc(cc4c3n(C)c(=O)n4CCC(C)(C)O)Nc3nc2ncc3Cl)C1(F)F [Compound 34, (1^3R, 1^5S)-2^5-Chloro-1^4,1^4-difluoro-4^1-(3-hydroxy-3-methylbutyl)-1^5,4^3-dimethyl-4^2,4^3-dihydro-4 H-5,8-dioxa-3-aza-4(6,4)-benzo[d]imidazola-2(2,4)-pyrimidina-1 (1,3)-piperidinacyclooctaphan-4^2-one]	> 0.4 µM
